Experimental data reported in US7326689B2, “Pseudomycins useful against plant diseases” (Eli Lilly and Company, priority 2000, dated 2008).

Assays:
Test in all cases: Antifungal growth assay in potato dextrose broth, 24-well
Assay type in all cases: cell-based
Parameters in all cases: key: NI, no inhibition; p (partial), at least 50% inhibited
Botrytis alli = settings: 2x assays
Experimental: (§1) Fungi to be tested were propagated on potato dextrose agar (PDA) plates at room temperature. Stock solutions of pseudomycins and depsipeptide were suspended in dimethylsulfoxide (DMSO) (Sigma) at 5 mg/ml and stored at −20C. Serial dilutions of compounds were done the day of the experiment. All serial dilutions were made in DMSO. […] These are noted in the raw data section.
(§2) Assays were performed in 24-well cell culture clusters (Costar 3524), with 990 ul potato dextrose broth (PDB, Difco) and 10 ul of the compound to be tested in each well. Initial concentrations tested were 50-1.56 ug/ml (final concentration of pseudomycin). Actual concentrations of pseudomycins tested were 50, 25, 12.5, 6.25, 3.12 and 1.56 ug/ml. Each well was inoculated with the appropriate fungus. Unless noted, the fungal inoculum consisted of an ˜4 mm^2 piece of PDA with fungal mycelium. The exceptions were as follows. Ustilago maydis: this fungus grows much like a yeast on PDA, and cells were scraped from the PDA stock plate, resuspended in PDB and 10 ul inoculum added to each well. Monilinia sp.: this fungal mycelium grows as a very loose sheet on top of PDA and would not adhere to agar blocks. Fungal mycelium was ground with a metal rod in 500 ul PDB and 10 ul inoculum was added to each well. Mycosphaeella fijiensis, Septoria passerinii, Septoria triticii: these fungi all grow very slowly and the results were difficult to score if a small piece of agar with fungal mycelium on it was used as an inoculum. For these fungi, the mycelium was ground with a metal rod in 500 ul PDB and 10 ul inoculum was added to each well.
(§3) Wells were scored for fungal growth at two days and five days. Some slow growing fungi were scored at later days for growth because assessment was not possible at two or five days. Growth was scored by comparison to a control consisting of fungus inoculated into 990 ul potato dextrose broth and 10 ul of DMSO (Dimethylsulfoxide). An additional control consisting of fungal inoculum in PDB only was performed to ensure that the DMSO was not inhibitory to fungal growth.
(§4) For assays that were repeated, new stock solutions were made from a second shipment of pseudomycins. Note that pseudomycin B′ and depsipeptide stock solutions were remade from first shipment materials because these were not included in the second shipment. […] Actual concentrations of pseudomycins tested were 2, 1, 0.5, 0.25, 0.125 and 0.0625 ug/ml. A-PO4 and A-FB=pseudomycin A phosphate salt and free base respectively.
(§5) Table 2: Two day results—concentration indicated is lowest level of compound (ug /ml) that results is no growth. NI, no inhibition; p (partial), at least 50% inhibited; -, not determined. If number of assays was greater than one, number of assays performed on the fungus is noted in parentheses. For several slow-growing fungi, days elapsed before observation (if different than two) are noted.
(§6) Table 3: Five day results—concentration indicated is lowest level of compound (ug /ml) that results in no growth. NI, no inhibition; p (partial), at least 50% inhibited; -, not performed on the fungus is noted in parentheses. For several slow-growing fungi, days elapsed before observation (if different than five) are noted.

Stagonospora nodorum = tested on: Stagonospora nodorum
Experimental: as §1, §2, §3, §4, §5, §6

Fusarium avenaceum = tested on: Fusarium avenaceum
Experimental: as §1, §2, §3, §4, §5, §6

Tapesia acuformis = settings: 2x assays
Experimental: as §1, §2, §3, §4, §5, §6

Phytophthora ultimum = tested on: Phytophthora ultimum
Experimental: as §1, §2, §3, §4, §5, §6

Bipolaris sorokiniana = tested on: Bipolaris sorokiniana
Experimental: as §1, §2, §3, §4, §5, §6

Fusarium solani = tested on: Fusarium solani
Experimental: as §1, §2, §3, §4, §5, §6

Phytophthora cinnemani = tested on: Phytophthora cinnemani
Experimental: as §1, §2, §3, §4, §5, §6

Verticillium dahliae = settings: 2x assays
Experimental: as §1, §2, §3, §4, §5, §6

[1] = tested on: Drechslera tritici-repentis
Experimental: as §1, §2, §3, §4, §5, §6

Phoma chrysamthecola = settings: five day results
Experimental: as §1, §2, §3, §4, §5, §6

Alternaria helianthi = settings: 2x assays
Experimental: as §1, §2, §3, §4, §5, §6

[2] = tested on: Pestalotiopsis microspora NE-32
Experimental: as §1, §2, §3, §4, §5, §6

Phyllosticta maydis = tested on: Phyllosticta maydis
Experimental: as §1, §2, §3, §4, §5, §6

Drechslera teres = tested on: Drechslera teres
Experimental: as §1, §2, §3, §4, §5, §6

Fusarium culmorum = tested on: Fusarium culmorum
Experimental: as §1, §2, §3, §4, §5, §6

Aphanomyces sp. = settings: 2x assays
Experimental: as §1, §2, §3, §4, §5, §6

Tapesia yallundae = settings: 2x assays
Experimental: as §1, §2, §3, §4, §5, §6

Cochliobolus carbonum = tested on: Cochliobolus carbonum
Experimental: as §1, §2, §3, §4, §5, §6

| Substance | lowest level of compound that results in no growth (Botrytis alli; five day results) | lowest level of compound that results in no growth (Botrytis alli; two day results) | lowest level of compound that results in no growth (Stagonospora nodorum; five day results) | lowest level of compound that results in no growth (Stagonospora nodorum; two day results) | lowest level of compound that results in no growth (Fusarium avenaceum; five day results) | lowest level of compound that results in no growth (Fusarium avenaceum; two day results) | lowest level of compound that results in no growth (Tapesia acuformis; five day results) | lowest level of compound that results in no growth (Tapesia acuformis; two day results) | lowest level of compound that results in no growth (Phytophthora ultimum; five day results) | lowest level of compound that results in no growth (Phytophthora ultimum; two day results) | lowest level of compound that results in no growth (Bipolaris sorokiniana; five day results) | lowest level of compound that results in no growth (Bipolaris sorokiniana; two day results) | lowest level of compound that results in no growth (Fusarium solani; five day results) | lowest level of compound that results in no growth (Fusarium solani; two day results) | lowest level of compound that results in no growth (Phytophthora cinnemani; five day results) | lowest level of compound that results in no growth (Phytophthora cinnemani; two day results) | lowest level of compound that results in no growth (Verticillium dahliae; five day results) | lowest level of compound that results in no growth (Verticillium dahliae; two day results) | lowest level of compound that results in no growth ([1]; five day results) | lowest level of compound that results in no growth ([1]; two day results, 2x assays) [µg/mL] | other results |
| --- | --- | --- | --- | --- | --- | --- | --- | --- | --- | --- | --- | --- | --- | --- | --- | --- | --- | --- | --- | --- | --- |
| Pseudomycin C′ | NI | NI | NI | NI | NI | NI | NI | NI | NI | NI | NI | NI | NI | NI | NI | NI | p at 50 | p at 50 | NI | 50 | lowest level of compound that results in no growth (Phoma chrysamthecola): NI; lowest level of compound that results in no growth (Alternaria helianthi; five day results): NI; lowest level of compound that results in no growth (Alternaria helianthi; two day results): p at 50; lowest level of compound that results in no growth ([2]; five day results): NI; lowest level of compound that results in no growth ([2]; two day results): NI; lowest level of compound that results in no growth (Phyllosticta maydis; five day results): NI; lowest level of compound that results in no growth (Phyllosticta maydis; two day results): p at 50; lowest level of compound that results in no growth (Drechslera teres; five day results): NI; lowest level of compound that results in no growth (Drechslera teres; two day results): NI; lowest level of compound that results in no growth (Fusarium culmorum; five day results): NI; lowest level of compound that results in no growth (Fusarium culmorum; two day results): NI; lowest level of compound that results in no growth (Aphanomyces sp.; five day results): p at 50; lowest level of compound that results in no growth (Aphanomyces sp.; two day results): 25 µg/mL; lowest level of compound that results in no growth (Tapesia yallundae; five day results): NI; lowest level of compound that results in no growth (Tapesia yallundae; two day results): 6.25 µg/mL; lowest level of compound that results in no growth (Cochliobolus carbonum; five day results): NI; lowest level of compound that results in no growth (Cochliobolus carbonum; two day results): NI |
| pseudomycin A-FB | NI | NI | NI | NI | NI | NI | NI | NI | NI | NI | NI | NI | NI | p at 50 | NI | NI | p at 50 | 50 µg/mL | NI | 25 | lowest level of compound that results in no growth (Phoma chrysamthecola): p at 50; lowest level of compound that results in no growth (Alternaria helianthi; five day results): 25 µg/mL; lowest level of compound that results in no growth (Alternaria helianthi; two day results): 25 µg/mL; lowest level of compound that results in no growth ([2]; five day results): NI; lowest level of compound that results in no growth ([2]; two day results): p at 50; lowest level of compound that results in no growth (Phyllosticta maydis; five day results): NI; lowest level of compound that results in no growth (Phyllosticta maydis; two day results): p at 50; lowest level of compound that results in no growth (Drechslera teres; five day results): NI; lowest level of compound that results in no growth (Drechslera teres; two day results): NI; lowest level of compound that results in no growth (Fusarium culmorum; five day results): NI; lowest level of compound that results in no growth (Fusarium culmorum; two day results): NI; lowest level of compound that results in no growth (Aphanomyces sp.; five day results): NI; lowest level of compound that results in no growth (Aphanomyces sp.; two day results): NI; lowest level of compound that results in no growth (Tapesia yallundae; five day results): 25 µg/mL; lowest level of compound that results in no growth (Tapesia yallundae; two day results): 12.5 µg/mL; lowest level of compound that results in no growth (Cochliobolus carbonum; five day results): NI; lowest level of compound that results in no growth (Cochliobolus carbonum; two day results): NI |
| pseudomycin A-PO4 | p at 50 | 50 µg/mL | NI | NI | NI | NI | 50 µg/mL | 50 µg/mL | NI | NI | NI | NI | NI | NI | NI | NI | p at 50 | p at 50 | p at 50 | 50 | lowest level of compound that results in no growth (Phoma chrysamthecola): NI; lowest level of compound that results in no growth (Alternaria helianthi; five day results): 25 µg/mL; lowest level of compound that results in no growth (Alternaria helianthi; two day results): 25 µg/mL; lowest level of compound that results in no growth ([2]; five day results): NI; lowest level of compound that results in no growth ([2]; two day results): p at 50; lowest level of compound that results in no growth (Phyllosticta maydis; five day results): NI; lowest level of compound that results in no growth (Phyllosticta maydis; two day results): p at 50; lowest level of compound that results in no growth (Drechslera teres; five day results): NI; lowest level of compound that results in no growth (Drechslera teres; two day results): NI; lowest level of compound that results in no growth (Fusarium culmorum; five day results): NI; lowest level of compound that results in no growth (Fusarium culmorum; two day results): NI; lowest level of compound that results in no growth (Aphanomyces sp.; five day results): p at 50; lowest level of compound that results in no growth (Aphanomyces sp.; two day results): 50 µg/mL; lowest level of compound that results in no growth (Tapesia yallundae; five day results): 50 µg/mL; lowest level of compound that results in no growth (Tapesia yallundae; two day results): 25 µg/mL; lowest level of compound that results in no growth (Cochliobolus carbonum; five day results): NI; lowest level of compound that results in no growth (Cochliobolus carbonum; two day results): NI |
